Measured values as given in article PMC8087101, “Human parvovirus B19 interacts with globoside under acidic conditions as an essential step in endocytic trafficking” (PLoS Pathogens, 2021).

Target: T1, B19V (native virus capsid) (Human parvovirus B19 strain HV, UniProt Q9PZT0)
T1 construct: gene vp; icosahedral capsid of 60 VP1 and VP2 proteins; with Minor capsid protein VP1
Assay: hemagglutination inhibition of human red blood cells by soluble Gb4; binding to cells also by qPCR
Type: cell-based
Details: pH 6.3, PiBS, room temperature; ceramide of natural source (Matreya), in DMSO; Gb3 as control lipid

globoside [Gb4] was tested, and the “hemagglutination inhibition, effective concentration” value was 0.2 to 0.4 µM.
